solubility in de-ionized water: freely soluble
USP Descriptor (de-ionized water): Freely Soluble
Final solution PH (de-ionized water, approx. 200 mg salt in 1 mL): 6.2
Solubility (mgA/mL) (de-ionized water, expressed in terms of free base): >107 mgA/mL
Substance: (S)-(4,5-dihydro-7H-thieno[2,3-c]pyran-7-yl)-N-methylmethanamine R-mandelate [(S)-TPMA R-mandelate]

— US11440921B2, “Salts, crystal forms, and production methods thereof” (Sunovion Pharmaceuticals Inc., priority 2018, dated 2022)
